# According to publication PMC6036970, “Natural and redesigned wasp venom peptides with selective antitumoral activity” (Beilstein Journal of Organic Chemistry, 2018):
# Where no end group is shown, it is not given here.
# How the values were obtained:
# [1] = tested on: MCF-7 breast cancer cells; assay: MTT cytotoxicity assay on MCF-7 cancer cells; assay type: cell-based; details: for IC50 against MCF-7 / IC50: MCF-7, 24 h, read at 570 nm; for IC50 against MCF-7 / IC50 / LD50 / concentration achieving >50% of cancer cell lysis: MTT, triplicate; for effect on cell viability 2 h post-exposure: after 2 h; for inhibition of cancer cell growth: dose of ≈50 μmol L^−1; for inhibition of cell viability: 50 μmol L^−1 after 2 h; for IC50: read-out: IC50 against MCF-7; for LD50 / concentration achieving >50% of cancer cell lysis: MCF-7, after 24 h
# Experimental: (§1) MCF-7 cells (ATCC) were maintained in RPMI 1640 medium supplemented with 10% heat inactivated FBS and 100 μg mL^−1 penicillin/10 μg mL^−1 streptomycin. One day before the assays, the cells were plated in 96-well microtiter plates with a density of 2.0 × 10^4 cells/well at 37 °C and 5% CO2. On the next day, cells were treated with peptides serial dilutions (0.09–50 μmol L^–1), incubated in individual microtiter plates for 2 and 24 h and MTT assays were performed after treatment. Human breast epithelial cells MCF-10A (ATCC) were maintained in a mixture of Dulbecco’s Modified Eagle’s Medium and Ham’s F12 nutrient mixture supplemented with 5% inactivated horse serum, 10 μg mL^−1 insulin, 0.02 μg mL^−1 human epidermal growth factor, 0.5 μg mL^−1 hydrocortisone, 0.10 μg mL^−1 choleric toxin, 100 U mL^−1 penicillin, and 100 μg mL^−1 streptomycin. The cells were preincubated for 24 h, plated in 96-well microtiter plates with a density of 2.0 × 10^4 cells/well at 37 °C and 5% CO2. On the next day, cells were treated with peptides serial dilutions (25 to 100 μmol L^−1), incubated in individual microtiter plates for 4 and 24 h and MTT assay was performed after treatment. Experiments were performed in triplicate.
# (§2) Briefly, MTT (Sigma-Aldrich) was dissolved in water and filtered to make up a […] solution. 30 μL of this solution were added to all the wells which already contained peptide-treated cells and kept at 37 °C for 45 minutes. Subsequently, the solution was discarded and replaced with 150 μL/well of DMSO and followed by gentle shaking for 15 minutes. Finally, the microplates were read on an ELISA reader at 570 nm. Experiments were performed in triplicate.
# human red blood cells = details: ref Torres et al. [9]–[10]; cited from earlier work
# Excerpt: Table 1 Theoretical physicochemical properties and hemolytic activity of decoralin and its synthetic analogs.^a
# MCF-10A normal cells = assay: MTT cytotoxicity assay on MCF-10A normal cells; assay type: cell-based, human; details: for cytotoxicity against MCF-10A normal cells: up to higher concentrations (≈100 μmol L^−1)
# Experimental: as §1, §2
# MCF-7 cells = assay: AFM measurement of cell membrane roughness; assay type: cell-based; details: MCF-7, 50 μmol L^−1, 24 h, AFM contact mode, Ra and Rq
# Experimental: The AFM imaging of MCF-7 cells untreated (control) and treated with peptide (50 μmol L^−1 solutions of Dec-NH2 and [Leu]^8-Dec-NH2, which presented low activity when compared to other analogs and was used here as a treated control) was performed using an Agilent Technologies 5500 AFM/SPM microscope that was in contact mode and a Nanosensors™ PPP-CONT probe (NanoSensors; PPP-Cont-20, PointProbe-Plus Silicon-SPM-Sensor). The material properties and dimensions of the AFM tips used in this experiment were as follows: resonance frequency of 6–21 kHz, force constant of 0.02–0.77 N m^−1, cantilever length of 450 ± 10 μm, cantilever width of 50 ± 7.5 μm, cantilever thickness of 2 ± 1 μm, tip height of 10–15 μm and resistivity of 0.01–0.02 Ω cm. The assays were performed in triplicate; image processing and roughness determinations were performed with the aid of the Gwyddion software (http://gwyddion.net/download.php). In order to compare the cell surface, we used two roughness parameters, the mean roughness (Ra) and the mean square of Z data (Rq), where N is the difference between the highest and the lowest points in the analyzed area. […]
# The root mean square of the Z values Rq is the standard deviation of the N values in the area analyzed and is given by Equation 2: […]
# [2] = tested on: Gram-positive bacteria, Gram-negative bacteria, and fungi; details: ref Torres et al. [9]; cited from earlier work
Substance,IC50 against MCF-7 [1] [µM],"inhibition of cancer cell growth ([1]; MCF-7, MTT)",MHC (maximal non-hemolytic concentration) (human red blood cells) [µmol/L],IC50 [1] [µM],other results
"RLLSLIRKLIT-NH2 [[Arg]^1-Dec-NH2, synthetic analog of Dec-NH2]",50.0,substantial inhibition,25.00,,"effect on cell viability 2 h post-exposure ([1]; MCF-7, MTT): significant decreased cell viability"
"SFLSLIRKLIT-NH2 [[Phe]^2-Dec-NH2, synthetic analog of Dec-NH2]",50.0,substantial inhibition,3.12,,"inhibition of cell viability ([1]; MCF-7, MTT): inhibited cell viability the most"
SLLPLIRKLIT-NH2 [[Pro]^4-Dec-NH2],,,12.50,25,
"SLLSLFRKLI-NH2 [[Phe]^6-Des[Thr]^11-Dec-NH2, synthetic analog of Dec-NH2]",50.0,substantial inhibition,12.50,,"inhibition of cell viability ([1]; MCF-7, MTT): inhibited cell viability the most"
SLLSLFRKLIT-NH2 [[Phe]^6-Dec-NH2],,,3.12,> 50,"effect on cell viability 2 h post-exposure ([1]; MCF-7, MTT): did not show significant inhibition"
SLLSLIRKLIT-NH2 [Dec-NH2],,,1.56,12.5,LD50 / concentration achieving >50% of cancer cell lysis [1]: 12.5 µmol/L; cytotoxicity against MCF-10A normal cells (MCF-10A normal cells): no significant cytotoxicity
SLLSLIRKLIW-NH2 [[Trp]^11-Dec-NH2],,,1.56,25,
SLLSLIRKLLT-NH2 [[Leu]^10-Dec-NH2],,,25.00,12.5,LD50 / concentration achieving >50% of cancer cell lysis [1]: 12.5 µmol/L; cytotoxicity against MCF-10A normal cells (MCF-10A normal cells): no significant cytotoxicity
SLLSLIRLLIT-NH2 [[Leu]^8-Dec-NH2],,,50.00,> 50,"activity against MCF-7 cells compared to the negative control ([1]; MCF-7, MTT): did not present significant activity; cytotoxicity towards normal MCF-10A cells (MCF-10A normal cells; lowest concentration tested (25 μmol L^−1)): cytotoxic; change of membrane roughness (MCF-7 cells): did not significantly change membrane roughness; antimicrobial activity (order of magnitude) [2]: ~10^1 μmol L^−1"
